Laboratory results from US11464802B2, “3-substituted piperidine compounds for Cbl-b inhibition, and use thereof” (Nurix Therapeutics, Inc., priority 2019, dated 2022).
Like-named read-outs stand apart in the source and are kept apart here.

Assays:
Cbl-b = Cbl-b (Homo sapiens (Human), UniProt Q13191); assay: Cbl-b displacement assay (Cbl-b inhibition assay), TR-FRET probe displacement, Biological Example 1; type: binding
Procedure: Candidate compounds were evaluated for their ability to bind and inhibit Cbl-b, an E3 ubiquitin-protein ligase, as evidenced by their ability to displace a fluorophore-labeled probe (Example 46) bound to Cbl-b.
The ability of candidate compounds to displace a known inhibitor and thereby inhibit Cbl-b activity was measured by monitoring the interaction of Cbl-b with a fluorophore-labeled probe in the presence of the candidate compound. A truncated variant of Cbl-b (UniProt number Q13191; SEQ ID NO:1) containing an Avitag at its N-terminus was co-expressed with BirA biotin ligase and purified using a standard protocol (see Dou et al., Nature Structural and Molecular Biology 8: 982-987, 2013; Avidity LLC).
Fluorescently-labeled inhibitor probe was synthesized and tagged with BODIPY FL (Example 46). Cbl-b displacement assays were performed in a 384-well plate at room temperature in a 10 μL reaction volume by pre-incubating 0.5 nM Cbl-b or 0.125 nM Cbl-b (final concentration, indicated as “High” and “Low”, respectively) in an assay buffer containing 20 mM HEPES pH 7.5, 150 mM NaCl, 0.01% Triton X-100, 0.01% BSA, and 0.5 mM TCEP in the presence of a candidate compound in 1% DMSO (final concentration) for 1 hour. After incubation in the presence of the candidate compound, the plate was incubated for an additional 1 hour in the presence of an approximate EC40 binding saturation consisting of 150 nM fluorescently-labeled inhibitor probe and 2 nM Streptavidin-Terbium (Cisbio) (final concentrations). Following the 1 hour incubation, the plates were read for TR-FRET signal at 520/620 nM using an Envision plate reader (Perkin Elmer).

[1] = system: primary human total T-cells; assay: Primary human total T-cell activation: IL-2 secretion, Biological Example 2; type: cell-based; settings: 48 hours, fold change over baseline; for fold induction at 0.3 µM: inhibitor 0.3 μM; for fold induction at 1 µM: inhibitor 1 μM; for fold induction at 3 µM: inhibitor 3 μM
[2] = system: primary human total T-cells; assay: Primary human total T-cell activation: CD25 surface staining, Biological Example 2; type: cell-based; settings: 48 hours, fold change over baseline; for fold induction at 0.3 µM: inhibitor 0.3 μM; for fold induction at 1 µM: inhibitor 1 μM; for fold induction at 3 µM: inhibitor 3 μM
[3] = 0.5 nM Cbl-b final concentration (High), read-out: Cbl-b activity IC50 (High)
[4] = Cbl-b concentration (High or Low) not given, read-out: IC50 values in the Cbl-b inhibition assay of Biological Example 1
[5] = anti-CD3/anti-CD28 co-stimulation
[6] = anti-CD3/anti-CD28 co-stimulation, read-out: IL-2 secretion CD3/CD28 1 μM
[7] = anti-CD3 alone, read-out: IL-2 secretion CD3 1 μM
[8] = anti-CD3/anti-CD28 co-stimulation, read-out: CD25 staining CD3/CD28 1 μM
[9] = anti-CD3 alone, read-out: CD25 staining CD3 1 μM
[10] = 0.125 nM Cbl-b final concentration (Low), read-out: Cbl-b activity IC50 (Low)

Cbl-b, sequence (Q13191 36-427): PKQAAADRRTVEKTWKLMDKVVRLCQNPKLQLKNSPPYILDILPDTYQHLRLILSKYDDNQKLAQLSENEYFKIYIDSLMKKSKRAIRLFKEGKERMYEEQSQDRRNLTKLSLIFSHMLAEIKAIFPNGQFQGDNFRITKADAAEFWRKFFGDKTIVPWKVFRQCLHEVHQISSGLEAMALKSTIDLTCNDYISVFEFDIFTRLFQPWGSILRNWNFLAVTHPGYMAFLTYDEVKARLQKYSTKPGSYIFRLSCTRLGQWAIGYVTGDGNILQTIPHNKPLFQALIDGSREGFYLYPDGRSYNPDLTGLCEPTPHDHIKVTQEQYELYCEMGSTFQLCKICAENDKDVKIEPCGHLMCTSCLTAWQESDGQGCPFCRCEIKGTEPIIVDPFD

SMILES: C[C@@H]1CCCN(Cc2cc3c(c(C(F)(F)F)c2)CN(c2cccc(C4(Cc5nncn5C)COC4)c2)C3=O)C1 [Compound 3, (R)-2-(3-(3-((4-methyl-4H-1,2,4-triazol-3-yl)methyl)oxetan-3-yl)phenyl)-6-((3-methylpiperidin-1-yl)methyl)-4-(trifluoromethyl)isoindolin-1-one]
- IC50 (Cbl-b; [3]): 1 to 5 nM
- IC50 (Cbl-b; [4]): 1 to 5 nM
- fold induction at 0.3 µM [1, 5]: 11 to 15
- fold induction at 1 µM [1, 6]: > 15
- fold induction at 1 µM [1, 7]: 0.34 to 0.66
- fold induction at 3 µM ([1]; anti-CD3 alone): 0.34 to 0.66
- fold induction at 0.3 µM [2, 5]: 1.25 to 1.39
- fold induction at 1 µM [2, 8]: 1.25 to 1.39
- fold induction at 1 µM [2, 9]: 1.05 to 1.14
- fold induction at 3 µM ([2]; anti-CD3 alone): 1.05 to 1.14

SMILES: Cn1cnnc1CC1(c2cccc(N3Cc4c(cc(CN5CCC(F)(F)[C@H](C#N)C5)cc4C(F)(F)F)C3=O)c2)COC1 [Compound 11, (S)-4,4-difluoro-1-((2-(3-(3-((4-methyl-4H-1,2,4-triazol-3-yl)methyl)oxetan-3-yl)phenyl)-3-oxo-7-(trifluoromethyl)isoindolin-5-yl)methyl)piperidine-3-carbonitrile]
- IC50 (Cbl-b; [3]): 1 to 5 nM
- IC50 (Cbl-b; [4]): 1 to 5 nM
- fold induction at 0.3 µM [1, 5]: < 10
- fold induction at 1 µM [1, 6]: 11 to 15
- fold induction at 1 µM [1, 7]: < 0.33
- fold induction at 3 µM ([1]; anti-CD3 alone): < 0.33
- fold induction at 0.3 µM [2, 5]: 1.25 to 1.39
- fold induction at 1 µM [2, 8]: 1.25 to 1.39
- fold induction at 1 µM [2, 9]: < 1.04
- fold induction at 3 µM ([2]; anti-CD3 alone): < 1.04

SMILES: Cn1cnnc1CC1(c2cccc(N3Cc4c(cc(CN5CCC(F)(F)[C@]6(CCOC6)C5)cc4C(F)(F)F)C3=O)c2)COC1 [Compound 13, (R)-6-((10,10-difluoro-2-oxa-7-azaspiro[4.5]decan-7-yl)methyl)-2-(3-(3-((4-methyl-4H-1,2,4-triazol-3-yl)methyl)oxetan-3-yl)phenyl)-4-(trifluoromethyl)isoindolin-1-one]
- IC50 (Cbl-b; [3]): 1 to 5 nM
- fold induction at 0.3 µM [1, 5]: 11 to 15
- fold induction at 1 µM [1, 6]: 11 to 15
- fold induction at 1 µM [1, 7]: 0.34 to 0.66
- fold induction at 3 µM ([1]; anti-CD3 alone): 0.34 to 0.66
- fold induction at 0.3 µM [2, 5]: < 1.24
- fold induction at 1 µM [2, 8]: < 1.24
- fold induction at 1 µM [2, 9]: 1.05 to 1.14
- fold induction at 3 µM ([2]; anti-CD3 alone): < 1.04

SMILES: Cn1cnnc1CC1(c2cccc(N3Cc4c(cc(CN5CCC(F)(F)[C@@H](C#N)C5)cc4C(F)(F)F)C3=O)c2)COC1 [Compound 10, (R)-4,4-difluoro-1-((2-(3-(3-((4-methyl-4H-1,2,4-triazol-3-yl)methyl)oxetan-3-yl)phenyl)-3-oxo-7-(trifluoromethyl)isoindolin-5-yl)methyl)piperidine-3-carbonitrile]
- IC50 (Cbl-b; [3]): < 1 nM
- IC50 (Cbl-b; [4]): < 1 nM
- fold induction at 0.3 µM [1, 5]: 11 to 15
- fold induction at 1 µM [1, 6]: 11 to 15
- fold induction at 1 µM [1, 7]: < 0.33
- fold induction at 3 µM ([1]; anti-CD3 alone): < 0.33
- fold induction at 0.3 µM [2, 5]: 1.25 to 1.39
- fold induction at 1 µM [2, 8]: 1.25 to 1.39
- fold induction at 1 µM [2, 9]: 1.05 to 1.14
- fold induction at 3 µM ([2]; anti-CD3 alone): 1.05 to 1.14

SMILES: C[C@H]1CCCN(Cc2cc3c(c(C4CC4)n2)CN(c2cccc(C4(Cc5nncn5C(F)F)COC4)c2)C3=O)C1 [Compound 37, 4-cyclopropyl-2-[3-(3-{[4-(difluoromethyl)-1,2,4-triazol-3-yl]methyl}oxetan-3-yl)phenyl]-6-{[(3S)-3-methylpiperidin-1-yl]methyl}-3H-pyrrolo[3,4-c]pyridin-1-one]
- IC50 (Cbl-b; [10]): 1 to 5 nM
- IC50 (Cbl-b; [4]): 1 to 5 nM
- fold induction at 0.3 µM [1, 5]: > 15
- fold induction at 1 µM [1, 6]: > 15
- fold induction at 1 µM [1, 7]: > 0.66
- fold induction at 3 µM ([1]; anti-CD3 alone): > 0.66
- fold induction at 0.3 µM [2, 5]: > 1.39
- fold induction at 1 µM [2, 8]: > 1.39
- fold induction at 1 µM [2, 9]: > 1.14
- fold induction at 3 µM ([2]; anti-CD3 alone): > 1.14

SMILES: C[C@H]1CCCN([C@@H](C)c2cc3c(c(C4CC4)n2)CN(c2cccc(C4(Cc5nncn5C)COC4)c2)C3=O)C1 [Compound 51, 4-cyclopropyl-2-(3-(3-((4-methyl-4H-1,2,4-triazol-3-yl)methyl)oxetan-3-yl)phenyl)-6-((S)-1-((S)-3-methylpiperidin-1-yl)ethyl)-2,3-dihydro-1H-pyrrolo[3,4-c]pyridin-1-one]
- IC50 (Cbl-b; [10]): < 1 nM
- fold induction at 0.3 µM [1, 5]: > 15
- fold induction at 1 µM [1, 6]: > 15
- fold induction at 1 µM [1, 7]: > 0.66
- fold induction at 3 µM ([1]; anti-CD3 alone): > 0.66
- fold induction at 0.3 µM [2, 5]: > 1.39
- fold induction at 1 µM [2, 8]: > 1.39
- fold induction at 1 µM [2, 9]: > 1.14
- fold induction at 3 µM ([2]; anti-CD3 alone): > 1.14

SMILES: C[C@H]1CCCN(Cc2cc3c(c(C(F)(F)F)c2)CN(c2cc(C4(Cc5nncn5C)COC4)cc(Cl)n2)C3=O)C1 [Compound 47, 2-(6-chloro-4-{3-[(4-methyl-1,2,4-triazol-3-yl)methyl]oxetan-3-yl}pyridin-2-yl)-6-{[(3S)-3-methylpiperidin-1-yl]methyl}-4-(trifluoromethyl)-3H-isoindol-1-one]
- IC50 (Cbl-b; [10]): 5.1 to 100 nM
- IC50 (Cbl-b; [4]): 5.1 to 100 nM
- fold induction at 0.3 µM [1, 5]: > 15
- fold induction at 1 µM [1, 6]: > 15
- fold induction at 1 µM [1, 7]: > 0.66
- fold induction at 3 µM ([1]; anti-CD3 alone): > 0.66
- fold induction at 0.3 µM [2, 5]: > 1.39
- fold induction at 1 µM [2, 8]: > 1.39
- fold induction at 1 µM [2, 9]: > 1.14
- fold induction at 3 µM ([2]; anti-CD3 alone): > 1.14

SMILES: Cn1cnnc1CC1(c2cccc(N3Cc4c(cc(CN5C[C@@H](C(F)(F)F)C[C@H](C(F)(F)F)C5)cc4C(F)(F)F)C3=O)c2)COC1 (relative stereo) [Compound 20, trans-6-{[3,5-bis(trifluoromethyl)piperidin-1-yl]methyl}-2-(3-{3-[(4-methyl-1,2,4-triazol-3-yl)methyl]oxetan-3-yl}phenyl)-4-(trifluoromethyl)-3H-isoindol-1-one]
- IC50 (Cbl-b; [10]): 1 to 5 nM

SMILES: C[C@H]1CCCN(Cc2cc3c(c(C4CC4)n2)CN(c2cccc(C4(Cc5nncn5C)COC4)c2)C3=O)C1 [Compound 35, (S)-4-Cyclopropyl-2-(3-(3-((4-methyl-4H-1,2,4-triazol-3-yl)methyl)oxetan-3-yl)phenyl)-6-((3-methylpiperidin-1-yl)methyl)-2,3-dihydro-1H-pyrrolo[3,4-c]pyridin-1-one]
- IC50 (Cbl-b; [10]): 1 to 5 nM
- fold induction at 0.3 µM [1, 5]: 11 to 15
- fold induction at 1 µM [1, 6]: > 15
- fold induction at 1 µM [1, 7]: 0.34 to 0.66
- fold induction at 3 µM ([1]; anti-CD3 alone): > 0.66
- fold induction at 0.3 µM [2, 5]: < 1.24
- fold induction at 1 µM [2, 8]: 1.25 to 1.39
- fold induction at 1 µM [2, 9]: 1.05 to 1.14
- fold induction at 3 µM ([2]; anti-CD3 alone): > 1.14

SMILES: C[C@@H]1CN(Cc2cc3c(c(C(F)(F)F)c2)CN(c2cc(C4(Cc5nncn5C)COC4)cc(NC4COC4)n2)C3=O)CCC1(F)F [Compound 29, (R)-6-((4,4-difluoro-3-methylpiperidin-1-yl)methyl)-2-(4-(3-((4-methyl-4H-1,2,4-triazol-3-yl)methyl)oxetan-3-yl)-6-(oxetan-3-ylamino)pyridin-2-yl)-4-(trifluoromethyl)isoindolin-1-one]
- IC50 (Cbl-b; [3]): 5.1 to 100 nM
- IC50 (Cbl-b; [4]): 5.1 to 100 nM
- fold induction at 0.3 µM [1, 5]: 11 to 15
- fold induction at 1 µM [1, 6]: 11 to 15
- fold induction at 1 µM [1, 7]: 0.34 to 0.66
- fold induction at 3 µM ([1]; anti-CD3 alone): 0.34 to 0.66
- fold induction at 0.3 µM [2, 5]: < 1.24
- fold induction at 1 µM [2, 8]: < 1.24
- fold induction at 1 µM [2, 9]: < 1.04
- fold induction at 3 µM ([2]; anti-CD3 alone): < 1.04

SMILES: CC1CN(Cc2cc3c(c(C(F)(F)F)c2)CN(c2cccc(C4([C@@H](F)c5nncn5C)CC4)c2)C3=O)CCC1(F)F (stereo partly drawn) [Compound 26, 6-((4,4-difluoro-3-methylpiperidin-1-yl)methyl)-2-(3-(1-((R)-fluoro(4-methyl-4H-1,2,4-triazol-3-yl)methyl)cyclopropyl)phenyl)-4-(trifluoromethyl)isoindolin-1-one]
- IC50 (Cbl-b; [3]): 1 to 5 nM
- IC50 (Cbl-b; [4]): 1 to 5 nM

SMILES: CC1CN(Cc2cc3c(c(C(F)(F)F)c2)CN(c2cccc(C4(Cc5nncn5C)CC4)c2)C3=O)CCC1(F)F (stereo not shown) [Compound 24, 6-((4,4-difluoro-3-methylpiperidin-1-yl)methyl)-2-(3-(1-((4-methyl-4H-1,2,4-triazol-3-yl)methyl)cyclopropyl)phenyl)-4-(trifluoromethyl)isoindolin-1-one]
- IC50 (Cbl-b; [3]): < 1 nM
- IC50 (Cbl-b; [4]): < 1 nM

SMILES: CC1CN(Cc2cc3c(c(C(F)(F)F)c2)CN(c2cccc(C4([C@H](F)c5nncn5C)CC4)c2)C3=O)CCC1(F)F (stereo partly drawn) [Compound 25, 6-((4,4-difluoro-3-methylpiperidin-1-yl)methyl)-2-(3-(1-((S)-fluoro(4-methyl-4H-1,2,4-triazol-3-yl)methyl)cyclopropyl)phenyl)-4-(trifluoromethyl)isoindolin-1-one]
- IC50 (Cbl-b; [3]): 1 to 5 nM
- IC50 (Cbl-b; [4]): 1 to 5 nM
